{"source": "patent US8852883B2", "about": "(priority 2008, dated 2014)", "key": {"[1]": {"system": "currently used micro-organisms", "format": "biochemical"}, "[2]": {"system": "currently used micro-organisms", "format": "biochemical", "remark": "listed apart in the source"}, "[3]": {"system": "P. aeruginosa-derived enzyme", "format": "biochemical, Pseudomonas aeruginosa"}, "lysostaphin": {"target": "T1, lysostaphin (Staphylococcus simulans, UniProt P10547)", "T1 construct": "purchased Sigma", "T1 sequence (P10547 248-493, species assumed)": "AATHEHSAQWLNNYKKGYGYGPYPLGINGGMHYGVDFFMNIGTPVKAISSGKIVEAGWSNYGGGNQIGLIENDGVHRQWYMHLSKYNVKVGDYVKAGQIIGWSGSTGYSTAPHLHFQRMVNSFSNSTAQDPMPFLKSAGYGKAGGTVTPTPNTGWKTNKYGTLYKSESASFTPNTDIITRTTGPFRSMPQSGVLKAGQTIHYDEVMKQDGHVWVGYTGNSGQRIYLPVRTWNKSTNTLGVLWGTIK", "format": "biochemical"}, "[4]": {"system": "(virulent) B. anthracis-derived enzyme", "format": "biochemical, Bacillus anthracis"}, "Collagenase Clostridium": {"system": "Collagenase Clostridium", "format": "biochemical, Clostridium sp."}, "[5]": {"target": "Anthrax Lethal Factor (LF) (Bacillus anthracis, UniProt P15917)", "sequence (P15917 34-809 limits assumed)": "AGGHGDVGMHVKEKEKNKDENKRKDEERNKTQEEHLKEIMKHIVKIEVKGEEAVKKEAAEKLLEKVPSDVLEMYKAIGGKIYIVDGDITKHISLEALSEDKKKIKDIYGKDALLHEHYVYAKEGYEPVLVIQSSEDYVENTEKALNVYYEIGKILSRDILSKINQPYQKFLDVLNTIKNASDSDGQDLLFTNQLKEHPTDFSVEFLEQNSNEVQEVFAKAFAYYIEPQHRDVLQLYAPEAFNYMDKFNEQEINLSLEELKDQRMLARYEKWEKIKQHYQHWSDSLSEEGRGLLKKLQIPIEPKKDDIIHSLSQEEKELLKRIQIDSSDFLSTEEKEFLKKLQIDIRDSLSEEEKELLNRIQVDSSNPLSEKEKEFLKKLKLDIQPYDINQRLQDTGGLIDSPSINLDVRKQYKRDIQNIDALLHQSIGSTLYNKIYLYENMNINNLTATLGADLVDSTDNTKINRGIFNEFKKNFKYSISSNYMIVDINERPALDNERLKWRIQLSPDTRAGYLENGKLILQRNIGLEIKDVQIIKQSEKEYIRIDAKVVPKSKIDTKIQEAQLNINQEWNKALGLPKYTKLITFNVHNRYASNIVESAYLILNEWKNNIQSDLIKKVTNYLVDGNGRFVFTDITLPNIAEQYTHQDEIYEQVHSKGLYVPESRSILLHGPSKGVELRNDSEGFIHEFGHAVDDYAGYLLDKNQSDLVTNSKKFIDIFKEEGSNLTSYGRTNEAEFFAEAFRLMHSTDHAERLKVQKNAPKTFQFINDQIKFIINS", "format": "biochemical"}, "[6]": {"system": "Collagenase Vibrio/Dispase", "format": "biochemical, Vibrio sp"}, "Thermolysin": {"target": "T2, Thermolysin (Bacillus thermoproteolyticus, UniProt P00800)", "T2 construct": "purchased Sigma", "T2 sequence (P00800 233-548)": "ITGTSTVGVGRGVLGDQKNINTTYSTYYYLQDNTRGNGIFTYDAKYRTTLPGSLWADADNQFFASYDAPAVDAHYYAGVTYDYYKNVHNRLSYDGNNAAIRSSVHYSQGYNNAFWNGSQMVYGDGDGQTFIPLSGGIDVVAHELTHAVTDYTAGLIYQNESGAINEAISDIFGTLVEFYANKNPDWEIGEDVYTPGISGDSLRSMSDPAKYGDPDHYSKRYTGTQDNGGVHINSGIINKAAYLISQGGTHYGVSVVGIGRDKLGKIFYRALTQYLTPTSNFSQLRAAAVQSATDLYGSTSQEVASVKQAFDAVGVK", "format": "biochemical"}, "[7]": {"system": "(virulent) B. anthracis-derived enzyme", "format": "biochemical, Bacillus anthracis", "remark": "listed apart in the source"}, "B. cereus cells": {"system": "B. cereus cells", "format": "cell-based", "settings": "for Location of fluorescent BikKam1 fragments (fluorescence microscopy): 0.01 M BikKam1"}, "[8]": {"system": "enzymes derived from B. globigii", "format": "biochemical"}, "[9]": {"system": "B. thuringiensis-derived enzyme", "format": "biochemical"}, "B. cereus": {"system": "B. cereus", "format": "biochemical"}, "B. thuringiensis": {"system": "B. thuringiensis", "format": "biochemical"}, "[10]": {"system": "enzymes derived from V. cholerae", "format": "biochemical"}, "[11]": {"system": "V. cholerae-derived enzyme", "format": "biochemical"}, "[12]": {"system": "enzymes derived from C. botulinum", "format": "biochemical"}, "[13]": {"system": "enzymes derived from E. herbicola", "format": "biochemical"}}, "note": "“Also recorded” adds a separate entry of the source. Like-named read-outs stand apart in the source and are kept apart here. *: point of attachment. FITC = O=C1OC2(c3ccc(O)cc3Oc3cc(O)ccc32)c2ccc(NC(=S)*)cc21; Ahx = NCCCCCC(=O)O", "data": [{"substance": "FITC-Ahx-Pro-Hyp-Lys-DABCYL [BikKam9]", "values": [{"measurement": "Enzyme activity on substrate with the currently used micro-organisms", "setting": "[1]", "result": "No significant enzyme activity"}, {"measurement": "Enzyme activity on substrate with the currently used micro-organisms", "setting": "[2]", "result": "No significant enzyme activity"}]}, {"substance": "FITC-Ahx-Gly-Gly-DABCYL [BikKam23]", "values": [{"measurement": "Activity for P. aeruginosa compared to the other BikKam20-24 substrates", "setting": "[3]", "result": "lower than BikKam20-BikKam22; also recorded: significant decrease in activity; also recorded: lower activity"}, {"measurement": "Fluorescent signal of FRET: cleavage of substrate by P. aeruginosa-derived enzyme", "setting": "[3]", "result": "specifically cleaved"}, {"measurement": "Cleavage of substrate by lysostaphin", "setting": "lysostaphin", "result": "not cleaved; also recorded: does not interact"}]}, {"substance": "FITC-Ahx-Leu-DLeu-Lys-DABCYL [BikKam1]", "values": [{"measurement": "Fluorescent signal of FRET: cleavage of substrate by B. anthracis-derived enzyme", "setting": "[4]", "result": "specifically cleaved"}, {"measurement": "FRET signal with purified collagenase (Clostridium sp.)", "setting": "Collagenase Clostridium", "result": "No signal"}, {"measurement": "FRET signal with purified Lethal Factor", "setting": "[5]", "result": "No signal"}, {"measurement": "FRET signal with purified collagenase (Vibrio sp)", "setting": "[6]", "result": "No signal"}, {"measurement": "FRET signal with purified thermolysin", "setting": "Thermolysin", "result": "No signal"}, {"measurement": "Fluorescent signal of FRET: cleavage of substrate by B. anthracis-derived enzyme", "setting": "[7]", "result": "specifically cleaved"}, {"measurement": "Fluorescent bacteria (fluorescence microscopy)", "setting": "B. cereus cells; 0 hr", "result": "no fluorescent bacteria could be detected"}, {"measurement": "Location of fluorescent BikKam1 fragments (fluorescence microscopy)", "setting": "B. cereus cells; B. cereus, 2 hr incubation", "result": "could be detected in the cytoplasm"}, {"measurement": "Location of fluorescent BikKam1 fragments (fluorescence microscopy)", "setting": "B. cereus cells; B. cereus, 4 hr", "result": "besides in the cytoplasm also present in the cell wall at the new division sides"}, {"measurement": "Location of fluorescent BikKam1 fragments (fluorescence microscopy)", "setting": "B. cereus cells; B. cereus, 16 hr incubation", "result": "moved from the cytoplasm to the side walls"}, {"measurement": "Fluorescent BikKam1 fragments in bacteria (fluorescence microscopy)", "setting": "B. cereus cells; B. cereus, time not stated", "result": "Detection of fluorescent BikKam1 fragments in the cytoplasm"}, {"measurement": "Fluorescent signal of FRET: cleavage of substrate by B. globigii", "setting": "[8]", "result": "not capable of cleaving"}, {"measurement": "Fluorescent signal of FRET: cleavage of substrate by B. thuringiensis-derived enzyme", "setting": "[9]", "result": "Some weak activity"}]}, {"substance": "FITC-Ahx-DLeu-Leu-Lys-DABCYL [BikKam2]", "values": [{"measurement": "Fluorescent signal of FRET: cleavage of substrate by B. anthracis-derived enzyme", "setting": "[4]", "result": "specifically cleaved"}, {"measurement": "Fluorescent signal of FRET: cleavage of substrate by B. cereus", "setting": "B. cereus", "result": "weak signal"}, {"measurement": "Fluorescent signal of FRET: cleavage of substrate by B. anthracis-derived enzyme", "setting": "[7]", "result": "specifically cleaved"}, {"measurement": "Fluorescent signal of FRET: cleavage of substrate by B. thuringiensis", "setting": "B. thuringiensis", "result": "weak signal"}, {"measurement": "Fluorescent signal of FRET: cleavage of substrate by B. thuringiensis-derived enzyme", "setting": "[9]", "result": "specifically cleaved"}]}, {"substance": "FITC-Ahx-Leu-DLeu-Leu-Lys-DABCYL [BikKam5]", "values": [{"measurement": "Fluorescent signal of FRET: cleavage of substrate by B. anthracis-derived enzyme", "setting": "[4]", "result": "specifically cleaved"}, {"measurement": "Fluorescent signal of FRET: cleavage of substrate by B. anthracis-derived enzyme", "setting": "[7]", "result": "specifically cleaved"}, {"measurement": "Fluorescent signal of FRET: cleavage of substrate by V. cholerae", "setting": "[10]", "result": "Some cleavage"}, {"measurement": "Fluorescent signal of FRET: cleavage of substrate by B. thuringiensis-derived enzyme", "setting": "[9]", "result": "Some weak activity"}]}, {"substance": "FITC-Ahx-Gly-Gly-Gly-Gly-DABCYL ({FITC-Ahx}-GGGG-{DABCYL}) [BikKam21]", "values": [{"measurement": "Activity for P. aeruginosa compared to the other BikKam20-24 substrates", "setting": "[3]", "result": "slight increase in activity"}, {"measurement": "Cleavage of substrate by lysostaphin", "setting": "lysostaphin", "result": "specifically cleaved"}]}, {"substance": "FITC-Ahx-Gly-DABCYL [BikKam24]", "values": [{"measurement": "Fluorescent signal of FRET: cleavage of substrate by P. aeruginosa-derived enzyme", "setting": "[3]", "result": "no P. aeruginosa activity"}, {"measurement": "Enzyme activity on substrate with the currently used micro-organisms", "setting": "[1]", "result": "No significant enzyme activity"}, {"measurement": "Cleavage of substrate by lysostaphin", "setting": "lysostaphin", "result": "No significant enzyme activity"}]}, {"substance": "FITC-Ahx-Leu-DVal-Lys-DABCYL [BikKam6]", "values": [{"measurement": "Background with bacteria other than (virulent) B. anthracis", "setting": "[2]", "result": "hardly revealed any background"}, {"measurement": "Background with other bacteria than (virulent) B. anthracis", "setting": "[2]; at 60 min", "result": "Some weak background"}]}, {"substance": "FITC-Ahx-Leu-Leu-Lys-DABCYL [BikKam3]", "values": [{"measurement": "Fluorescent signal of FRET: cleavage of substrate by V. cholerae-derived enzyme", "setting": "[11]", "result": "specifically cleaved"}, {"measurement": "Fluorescent signal of FRET: cleavage of substrate by B. globigii", "setting": "[8]", "result": "show activity"}, {"measurement": "Fluorescent signal of FRET: cleavage of substrate by V. cholerae", "setting": "[10]", "result": "show activity"}, {"measurement": "Fluorescent signal of FRET: cleavage of substrate by C. botulinum", "setting": "[12]", "result": "show activity"}, {"measurement": "Fluorescent signal of FRET: cleavage of substrate by E. herbicola", "setting": "[13]", "result": "show activity"}, {"measurement": "Fluorescent signal of FRET: cleavage of substrate by B. thuringiensis-derived enzyme", "setting": "[9]", "result": "specifically cleaved"}]}, {"substance": "FITC-Ahx-DLeu-DLeu-Lys-DABCYL [BikKam4]", "values": [{"measurement": "Fluorescent signal of FRET: cleavage of substrate by B. anthracis-derived enzyme", "setting": "[4]", "result": "specifically cleaved"}, {"measurement": "Fluorescent signal of FRET: cleavage of substrate by B. anthracis-derived enzyme", "setting": "[7]", "result": "specifically cleaved"}, {"measurement": "Fluorescent signal of FRET: cleavage of substrate by B. thuringiensis-derived enzyme", "setting": "[9]", "result": "specifically cleaved"}]}, {"substance": "FITC-Ahx-Gly-Gly-Gly-Gly-Gly-DABCYL [BikKam20]", "values": [{"measurement": "Activity for P. aeruginosa compared to the other BikKam20-24 substrates", "setting": "[3]", "result": "increase in cleavage"}, {"measurement": "Fluorescent signal of FRET: cleavage of substrate by P. aeruginosa-derived enzyme", "setting": "[3]", "result": "specifically cleaved"}, {"measurement": "Cleavage of substrate by lysostaphin", "setting": "lysostaphin", "result": "specifically cleaved"}]}, {"substance": "FITC-Ahx-Gly-DAla-Lys-DABCYL [BikKam8]", "values": [{"measurement": "Enzyme activity on substrate with the currently used micro-organisms", "setting": "[1]", "result": "No significant enzyme activity"}, {"measurement": "Enzyme activity on substrate with the currently used micro-organisms", "setting": "[2]", "result": "No significant enzyme activity"}]}, {"substance": "FITC-Ahx-Gly-Gly-Gly-DABCYL [BikKam22]", "values": [{"measurement": "Activity for P. aeruginosa compared to the other BikKam20-24 substrates", "setting": "[3]", "result": "slight increase in activity; also recorded: increase in cleavage"}, {"measurement": "Fluorescent signal of FRET: cleavage of substrate by P. aeruginosa-derived enzyme", "setting": "[3]", "result": "specifically cleaved"}, {"measurement": "Cleavage of substrate by lysostaphin", "setting": "lysostaphin", "result": "somewhat cleavage"}]}, {"substance": "FITC-Ahx-Gly-DLeu-Lys-DABCYL [BikKam7]", "values": [{"measurement": "Fluorescent signal of FRET: cleavage of substrate by B. anthracis-derived enzyme", "setting": "[4]", "result": "specifically cleaved"}, {"measurement": "Fluorescent signal of FRET: cleavage of substrate by B. anthracis-derived enzyme", "setting": "[7]", "result": "specifically cleaved"}, {"measurement": "Fluorescent signal of FRET: cleavage of substrate by B. thuringiensis", "setting": "B. thuringiensis", "result": "weak signal"}]}]}
